Test results from paper PMC5218480 (PLoS ONE, 2017).

System: MV-4-11 cells
Test: Gene expression microarray analysis (Affymetrix PrimeView) and GSEA
Assay type: cell-based, human
Set-up: RFU PODN (11730768_x_at) / Fold change /veh PODN (11730768_x_at) / RFU LINC00158 (11744669_a_at) / Fold change /veh LINC00158 (11744669_a_at) / RFU DUSP10 (11751237_a_at) / Fold change /veh DUSP10 (11751237_a_at) / RFU ID3 (11757404_x_at) / Fold change /veh ID3 (11757404_x_at) / RFU PLEKHG5 (11737974_s_at) / Fold change /veh PLEKHG5 (11737974_s_at) / RFU LRRC4B (11730491_at) / Fold change /veh LRRC4B (11730491_at) / RFU GIMAP4 (11747438_a_at) / Fold change /veh GIMAP4 (11747438_a_at) / RFU KRT8 (11758183_x_at) / Fold change /veh KRT8 (11758183_x_at) / RFU CNN1 (11734310_a_at) / Fold change /veh CNN1 (11734310_a_at) / RFU VPS37D (11726825_at) / Fold change /veh VPS37D (11726825_at) / RFU C10orf10 (11716522_x_at) / Fold change /veh C10orf10 (11716522_x_at) / RFU KIR2DL2 /// KIR2DL4 /// KIR2DL5A /// KIR2DL5B /// KIR2DS1 /// KIR2DS2 /// KIR2DS3 /// KIR2DS4 /// KIR3DL3 /// KIR3DL3 /// KIR3DS1 (11738374_at) / Fold change /veh KIR2DL2 /// KIR2DL4 /// KIR2DL5A /// KIR2DL5B /// KIR2DS1 /// KIR2DS2 /// KIR2DS3 /// KIR2DS4 /// KIR3DL3 /// KIR3DL3 /// KIR3DS1 (11738374_at) / RFU C1QL1 (11718748_at) / Fold change /veh C1QL1 (11718748_at) / RFU TMPRSS4 (11747572_a_at) / Fold change /veh TMPRSS4 (11747572_a_at) / RFU HAMP (11756126_x_at) / Fold change /veh HAMP (11756126_x_at) / RFU RNFT2 (11725882_a_at) / Fold change /veh RNFT2 (11725882_a_at) / RFU NR4A2 (11747474_a_at) / Fold change /veh NR4A2 (11747474_a_at) / RFU ABCC12 (11746883_a_at) / Fold change /veh ABCC12 (11746883_a_at) / RFU TMEM136 (11760407_x_at) / Fold change /veh TMEM136 (11760407_x_at) / RFU CLDN22 /// WWC2 (11732394_at) / Fold change /veh CLDN22 /// WWC2 (11732394_at) / RFU HLA-DPB1 (11760878_x_at) / Fold change /veh HLA-DPB1 (11760878_x_at) / RFU SPINT1 (11716480_a_at) / Fold change /veh SPINT1 (11716480_a_at) / RFU GAP43 (11754022_s_at) / Fold change /veh GAP43 (11754022_s_at) / RFU A4GNT (11735810_at) / Fold change /veh A4GNT (11735810_at) / RFU PRB3 (11715151_x_at) / Fold change /veh PRB3 (11715151_x_at) / RFU TUBB4B (11761932_at) / Fold change /veh TUBB4B (11761932_at) / RFU CAPN14 (11732068_a_at) / Fold change /veh CAPN14 (11732068_a_at) / RFU TMCC2 (11721928_a_at) / Fold change /veh TMCC2 (11721928_a_at) / RFU IRGQ (11745062_a_at) / Fold change /veh IRGQ (11745062_a_at) / RFU FAM174B (11720279_a_at) / Fold change /veh FAM174B (11720279_a_at) / RFU TMPRSS4 (11748680_a_at) / Fold change /veh TMPRSS4 (11748680_a_at) / RFU FAM212B (11763350_a_at) / Fold change /veh FAM212B (11763350_a_at) / RFU PLEKHG5 (11743358_a_at) / Fold change /veh PLEKHG5 (11743358_a_at) / RFU ZSCAN30 (11745921_a_at) / Fold change /veh ZSCAN30 (11745921_a_at) / RFU CMKLR1 (11741424_a_at) / Fold change /veh CMKLR1 (11741424_a_at) / RFU LOC101060620 /// MAPK8IP1 (11723275_at) / Fold change /veh LOC101060620 /// MAPK8IP1 (11723275_at) / RFU SPTSSB (11747773_x_at) / Fold change /veh SPTSSB (11747773_x_at) / RFU PRSS12 (11739890_at) / Fold change /veh PRSS12 (11739890_at) / RFU BIN1 (11741810_x_at) / Fold change /veh BIN1 (11741810_x_at) / RFU WNT11 (11732464_a_at) / Fold change /veh WNT11 (11732464_a_at) / RFU C10orf10 (11716521_a_at) / Fold change /veh C10orf10 (11716521_a_at) / RFU C5orf56 (11738089_at) / Fold change /veh C5orf56 (11738089_at) / RFU CYB561 (11721691_x_at) / Fold change /veh CYB561 (11721691_x_at) / RFU ANKRD19P (11752326_a_at) / Fold change /veh ANKRD19P (11752326_a_at) / RFU OR2T12 /// OR2T33 /// OR2T8 (11738714_s_at) / Fold change /veh OR2T12 /// OR2T33 /// OR2T8 (11738714_s_at) / RFU VCAN (11748164_a_at) / Fold change /veh VCAN (11748164_a_at) / RFU JSRP1 (11732532_at) / Fold change /veh JSRP1 (11732532_at) / RFU KRTAP10-11 (11738290_x_at) / Fold change /veh KRTAP10-11 (11738290_x_at) / RFU MYO3A (11730013_a_at) / Fold change /veh MYO3A (11730013_a_at) / RFU EBF3 (11725865_a_at) / Fold change /veh EBF3 (11725865_a_at) / RFU CAMK2N1 (11719241_x_at) / Fold change /veh CAMK2N1 (11719241_x_at) / RFU C5orf56 (11738088_a_at) / Fold change /veh C5orf56 (11738088_a_at) / RFU OLFML3 (11715873_a_at) / Fold change /veh OLFML3 (11715873_a_at) / RFU LOC100653217 /// NTM (11731650_a_at) / Fold change /veh LOC100653217 /// NTM (11731650_a_at) / RFU MAPK11 (11762145_a_at) / Fold change /veh MAPK11 (11762145_a_at) / RFU FIZ1 (11724087_x_at) / Fold change /veh FIZ1 (11724087_x_at) / RFU OASL (11726364_x_at) / Fold change /veh OASL (11726364_x_at) / RFU SOX15 (11748057_x_at) / Fold change /veh SOX15 (11748057_x_at) / RFU CD79A (11719716_a_at) / Fold change /veh CD79A (11719716_a_at) / RFU HIST1H1D (11736915_at) / Fold change /veh HIST1H1D (11736915_at) / RFU CASKIN2 (11723855_a_at) / Fold change /veh CASKIN2 (11723855_a_at) / RFU LOC730098 (11760151_x_at) / Fold change /veh LOC730098 (11760151_x_at) / RFU OR4N2 (11742367_at) / Fold change /veh OR4N2 (11742367_at) / RFU PRRT2 (11749266_a_at) / Fold change /veh PRRT2 (11749266_a_at) / RFU SNX32 (11753110_a_at) / Fold change /veh SNX32 (11753110_a_at) / RFU CDHR5 (11726645_a_at) / Fold change /veh CDHR5 (11726645_a_at) / RFU RCAN1 (11760418_a_at) / Fold change /veh RCAN1 (11760418_a_at) / RFU FAM167A (11723789_a_at) / Fold change /veh FAM167A (11723789_a_at) / RFU FAM26E (11764081_at) / Fold change /veh FAM26E (11764081_at) / RFU ISYNA1 (11749810_s_at) / Fold change /veh ISYNA1 (11749810_s_at) / RFU ACY1 (11761880_at) / Fold change /veh ACY1 (11761880_at) / RFU 11764098_at / Fold change /veh 11764098_at / RFU SAMD14 (11745864_x_at) / Fold change /veh SAMD14 (11745864_x_at) / RFU NPB (11741838_a_at) / Fold change /veh NPB (11741838_a_at) / RFU TMPRSS6 (11731388_a_at) / Fold change /veh TMPRSS6 (11731388_a_at) / RFU KRTAP10-2 (11738614_at) / Fold change /veh KRTAP10-2 (11738614_at) / RFU ARHGAP8 /// PRR5-ARHGAP8 (11727945_x_at) / Fold change /veh ARHGAP8 /// PRR5-ARHGAP8 (11727945_x_at) / RFU KRTAP5-7 /// NADSYN1 (11734609_at) / Fold change /veh KRTAP5-7 /// NADSYN1 (11734609_at) / RFU RASL12 (11751679_a_at) / Fold change /veh RASL12 (11751679_a_at) / RFU CDKN2B (11736163_a_at) / Fold change /veh CDKN2B (11736163_a_at) / RFU PRF1 (11729649_at) / Fold change /veh PRF1 (11729649_at) / RFU, ZNF638 /// ZNF638-IT1 / Fold change vs veh, ZNF638 /// ZNF638-IT1 / RFU, PANK3 / Fold change vs veh, PANK3 / RFU, SH3YL1 / Fold change vs veh, SH3YL1 / RFU, ZEB2 / Fold change vs veh, ZEB2 / RFU, NRIP1 / Fold change vs veh, NRIP1 / RFU, PTTG1IP / Fold change vs veh, PTTG1IP / RFU, CAPN2 / Fold change vs veh, CAPN2 / RFU, MED14 / Fold change vs veh, MED14 / RFU, SNORA58 / Fold change vs veh, SNORA58 / RFU, C1orf63 / Fold change vs veh, C1orf63 / RFU, LRRFIP1 / Fold change vs veh, LRRFIP1 / RFU, NDUFAF7 / Fold change vs veh, NDUFAF7 / RFU, SLC12A2 / Fold change vs veh, SLC12A2 / RFU, IBTK / Fold change vs veh, IBTK / RFU, ESF1 / Fold change vs veh, ESF1 / Fold change vs veh, TMEM50B / RFU, TAOK1 / Fold change vs veh, TAOK1 / RFU, ACBD3 / Fold change vs veh, ACBD3 / RFU, TMA16 / Fold change vs veh, TMA16 / RFU, RWDD3 / Fold change vs veh, RWDD3 / RFU, BCAT1 / Fold change vs veh, BCAT1 / RFU, EDEM3 / Fold change vs veh, EDEM3 / RFU, TMEM33 / Fold change vs veh, TMEM33 / RFU, WDR75 / Fold change vs veh, WDR75 / RFU, AHCTF1 / Fold change vs veh, AHCTF1 / RFU, TFRC / Fold change vs veh, TFRC / RFU, ZDHHC17 / Fold change vs veh, ZDHHC17 / RFU, NOM1 / Fold change vs veh, NOM1 / RFU, ARL8B / Fold change vs veh, ARL8B / RFU, ZBTB11 / Fold change vs veh, ZBTB11 / RFU, TAMM41 / Fold change vs veh, TAMM41 / RFU, KIAA1704 /// LOC100996395 / Fold change vs veh, KIAA1704 /// LOC100996395 / RFU, ING1 / Fold change vs veh, ING1 / RFU, TRMT61B / Fold change vs veh, TRMT61B / RFU, FUBP3 / Fold change vs veh, FUBP3 / RFU, TP53 / Fold change vs veh, TP53 / RFU, TNKS2 / Fold change vs veh, TNKS2 / RFU, ZFP14 / Fold change vs veh, ZFP14 / RFU, ACTR2 / Fold change vs veh, ACTR2 / RFU, PPP3R1 / Fold change vs veh, PPP3R1 / RFU, PIK3R1 / Fold change vs veh, PIK3R1 / RFU, HNRNPA1 / Fold change vs veh, HNRNPA1 / RFU, RNF170 / Fold change vs veh, RNF170 / RFU, ZNF28 / Fold change vs veh, ZNF28 / RFU, RNGTT / Fold change vs veh, RNGTT / RFU, OGT / Fold change vs veh, OGT / RFU, BRD1 / Fold change vs veh, BRD1 / RFU, MARS / Fold change vs veh, MARS / RFU, ZNF655 / Fold change vs veh, ZNF655 / RFU, FAHD1 / Fold change vs veh, FAHD1 / RFU, BDP1 / Fold change vs veh, BDP1 / RFU, LRRCC1 / Fold change vs veh, LRRCC1 / RFU, ARID1A / Fold change vs veh, ARID1A / RFU, ZNF146 / Fold change vs veh, ZNF146 / RFU, ZNF330 / Fold change vs veh, ZNF330 / RFU, GPN3 / Fold change vs veh, GPN3 / RFU, C9orf123 / Fold change vs veh, C9orf123 / RFU, N4BP2L2 / Fold change vs veh, N4BP2L2 / RFU, ARFIP1 / Fold change vs veh, ARFIP1 / RFU, FAM179B / Fold change vs veh, FAM179B / RFU, BCL10 / Fold change vs veh, BCL10 / RFU, UHRF1BP1L / Fold change vs veh, UHRF1BP1L / RFU, BET1 / Fold change vs veh, BET1 / RFU, CNOT2 / Fold change vs veh, CNOT2 / RFU, ZNF268 / Fold change vs veh, ZNF268 / Fold change vs veh, ZNF507 / RFU, DGCR2 / Fold change vs veh, DGCR2 / RFU, WDSUB1 / Fold change vs veh, WDSUB1 / Fold change vs veh, HSP90B1 /// MIR3652 / RFU, ADSS / Fold change vs veh, ADSS / RFU, GK / Fold change vs veh, GK / RFU, ZNF148 / Fold change vs veh, ZNF148 / RFU, TAF9 / Fold change vs veh, TAF9 / RFU, SLC1A5 / Fold change vs veh, SLC1A5 / RFU, SLMO2 / Fold change vs veh, SLMO2 / RFU, ABCC4 / Fold change vs veh, ABCC4 / RFU, LOC101060439 /// RAP1B / Fold change vs veh, LOC101060439 /// RAP1B / RFU, RFX7 / Fold change vs veh, RFX7 / RFU, GTPBP10 / Fold change vs veh, GTPBP10 / RFU, CNEP1R1 / Fold change vs veh, CNEP1R1 / RFU, BIVM-ERCC5 /// ERCC5 / Fold change vs veh, BIVM-ERCC5 /// ERCC5 / RFU, ILF3 / Fold change vs veh, ILF3 / RFU 11762660_at / Fold change /veh 11762660_at / RFU VCAN (11757783_s_at) / Fold change /veh VCAN (11757783_s_at) / RFU DDX43 (11728927_at) / Fold change /veh DDX43 (11728927_at) / RFU KRT8 (11758188_x_at) / Fold change /veh KRT8 (11758188_x_at) / RFU NKD1 (11759106_at) / Fold change /veh NKD1 (11759106_at) / RFU SRD5A1 (11742802_a_at) / Fold change /veh SRD5A1 (11742802_a_at) / RFU TPSAB1 /// TPSB2 (11721975_s_at) / Fold change /veh TPSAB1 /// TPSB2 (11721975_s_at) / RFU GSTM3 (11746129_a_at) / Fold change /veh GSTM3 (11746129_a_at) / RFU IL23R (11737362_x_at) / Fold change /veh IL23R (11737362_x_at) / RFU TMEM51 (11727254_a_at) / Fold change /veh TMEM51 (11727254_a_at) / RFU PIWIL2 (11732686_x_at) / Fold change /veh PIWIL2 (11732686_x_at) / RFU ORM1 (11744905_x_at) / Fold change /veh ORM1 (11744905_x_at) / RFU CCDC152 (11743942_at) / Fold change /veh CCDC152 (11743942_at) / RFU ECM1 (11717891_a_at) / Fold change /veh ECM1 (11717891_a_at) / RFU IL23R (11748794_a_at) / Fold change /veh IL23R (11748794_a_at) / RFU TNFAIP8L3 (11732012_x_at) / Fold change /veh TNFAIP8L3 (11732012_x_at) / RFU MBOAT4 (11741988_at) / Fold change /veh MBOAT4 (11741988_at) / RFU 11764193_at / Fold change /veh 11764193_at / RFU TMEM53 (11763286_at) / Fold change /veh TMEM53 (11763286_at) / RFU MAGEB2 (11727129_at) / Fold change /veh MAGEB2 (11727129_at) / RFU TMEM200A (11744735_a_at) / Fold change /veh TMEM200A (11744735_a_at) / RFU CCDC152 (11751479_a_at) / Fold change /veh CCDC152 (11751479_a_at) / RFU FAM211A (11726209_a_at) / Fold change /veh FAM211A (11726209_a_at) / RFU RGS16 (11746705_a_at) / Fold change /veh RGS16 (11746705_a_at) / RFU VCAN (11755009_s_at) / Fold change /veh VCAN (11755009_s_at) / RFU RHOB (11743442_s_at) / Fold change /veh RHOB (11743442_s_at) / RFU RGS16 (11720943_a_at) / Fold change /veh RGS16 (11720943_a_at) / RFU RGS16 (11720944_at) / Fold change /veh RGS16 (11720944_at) / RFU, VPS4B / Fold change vs veh, VPS4B / RFU, CREB1 / Fold change vs veh, CREB1 / RFU, DNAJC13 / Fold change vs veh, DNAJC13 / RFU, GNAQ / Fold change vs veh, GNAQ / RFU, CDK5R1 / Fold change vs veh, CDK5R1 / RFU, ZRANB3 / Fold change vs veh, ZRANB3 / RFU, CUL4A / Fold change vs veh, CUL4A / RFU, CCNY / Fold change vs veh, CCNY / RFU, UFL1 / Fold change vs veh, UFL1 / RFU, COG3 / Fold change vs veh, COG3 / RFU, DIAPH2 / Fold change vs veh, DIAPH2 / RFU, SKA2 / Fold change vs veh, SKA2 / RFU, AFF3 / Fold change vs veh, AFF3 / RFU, LMF1 / Fold change vs veh, LMF1 / RFU, IPO11 / Fold change vs veh, IPO11 / RFU, DFFB / Fold change vs veh, DFFB / RFU, FOXP1 / Fold change vs veh, FOXP1 / RFU, CARD8 / Fold change vs veh, CARD8 / RFU, STRN3 / Fold change vs veh, STRN3 / RFU, ADK / Fold change vs veh, ADK / RFU, RASSF2 / Fold change vs veh, RASSF2 / RFU, WIPF1 / Fold change vs veh, WIPF1 / RFU, LARP1B / Fold change vs veh, LARP1B / RFU, RASA1 / Fold change vs veh, RASA1 / RFU, RB1 / Fold change vs veh, RB1 / RFU, PPFIA1 / Fold change vs veh, PPFIA1 / RFU, MAT2A / Fold change vs veh, MAT2A / RFU, CCT5 / Fold change vs veh, CCT5 / RFU, WDR92 / Fold change vs veh, WDR92 / RFU, CUX1 / Fold change vs veh, CUX1 / RFU, TTC7A / Fold change vs veh, TTC7A / RFU, TMEM135 / Fold change vs veh, TMEM135 / RFU, DEPTOR / Fold change vs veh, DEPTOR / RFU, CPM / Fold change vs veh, CPM / RFU, DNAJB6 / Fold change vs veh, DNAJB6 / RFU, CACNA2D3 / Fold change vs veh, CACNA2D3 / RFU, DTX4 / Fold change vs veh, DTX4 / RFU, TFCP2 / Fold change vs veh, TFCP2 / RFU, GMCL1 /// GMCL1P1 / Fold change vs veh, GMCL1 /// GMCL1P1 / RFU, AEBP2 / Fold change vs veh, AEBP2 / RFU, SNHG1 /// SNORD22 /// SNORD25 /// SNORD26 /// SNORD27 /// SNORD28 /// SNORD29 /// SNORD31 / Fold change vs veh, SNHG1 /// SNORD22 /// SNORD25 /// SNORD26 /// SNORD27 /// SNORD28 /// SNORD29 /// SNORD31 / Fold change (Aza/veh), C12orf56 (ProbeSet 11735607_a_at) / Fold change (ACY-1035/veh), C12orf56 (ProbeSet 11735607_a_at) / Fold change (Aza/veh), FGFR1OP (ProbeSet 11751329_s_at) / Fold change (ACY-1035/veh), FGFR1OP (ProbeSet 11751329_s_at) / Fold change (Aza/veh), VPS36 (ProbeSet 11739960_a_at) / Fold change (ACY-1035/veh), VPS36 (ProbeSet 11739960_a_at) / RFU SYPL1 (11715823_x_at) / Fold change /veh SYPL1 (11715823_x_at) / RFU IGFBP7 (11715501_s_at) / Fold change /veh IGFBP7 (11715501_s_at) / RFU REEP3 (11722064_at) / Fold change /veh REEP3 (11722064_at) / RFU IGLL1 (11728026_x_at) / Fold change /veh IGLL1 (11728026_x_at): dose or concentration left out as unconfirmed
Conditions: MV-4-11 cells, 48 hours

Nc1ncn([C@@H]2O[C@H](CO)[C@@H](O)[C@H]2O)c(=O)n1 [azacitidine] was tested, and the “Fold change /veh RHOB (11743442_s_at)” value was 1.27.
